Assays:
[1] = test system: MNFS60 (murine AML cells); test: Cell viability assay in MCSF dependent MNFS60 cells (Cell Titer Glo); type: cell-based; conditions: Mus musculus; tested at about 1 μM; MCSF 10 ng/mL, 72 hrs; read-out: CPEC50 MNFS60MCSF percent inhibition
Outline: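 MNFS60 cells, 5,000 per well in RPMI-1640/10% FBS, grown with 10 ng/mL MCSF and 3-fold compound dilutions for 72 h at 37 °C. Viable cells measured by CellTiter-Glo luminescence, triplicates; EC50 fitted, with MCSF-free wells as 100% inhibition.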

[2] = target: T1, cKIT (Homo sapiens, UniProt P10721); test: cKIT kinase in vitro biochemical assay (alphascreen); conditions: tested at about 1 μM; read-out: CKIT percent inhibition
T1 construct: The kinase domain of cKIT was assayed in 50 mM Hepes; purchased Upstate 14-559

[3] = target: T2, cytoplasmic domain of the human CSF-1R (Homo sapiens, UniProt P07333); test: In vitro kinase assay for CSF-1R (AlphaScreen); type: biochemical; conditions: tested at about 1 μM; read-out: CSF1RK 1 percent inhibition
T2 construct: Recombinant protein corresponding to the cytoplasmic domain of the human CSF-1R; purchased Invitrogen Corporation, Carlsbad, Calif; PV3249
T2 sequence (P07333 539-972 limits assumed): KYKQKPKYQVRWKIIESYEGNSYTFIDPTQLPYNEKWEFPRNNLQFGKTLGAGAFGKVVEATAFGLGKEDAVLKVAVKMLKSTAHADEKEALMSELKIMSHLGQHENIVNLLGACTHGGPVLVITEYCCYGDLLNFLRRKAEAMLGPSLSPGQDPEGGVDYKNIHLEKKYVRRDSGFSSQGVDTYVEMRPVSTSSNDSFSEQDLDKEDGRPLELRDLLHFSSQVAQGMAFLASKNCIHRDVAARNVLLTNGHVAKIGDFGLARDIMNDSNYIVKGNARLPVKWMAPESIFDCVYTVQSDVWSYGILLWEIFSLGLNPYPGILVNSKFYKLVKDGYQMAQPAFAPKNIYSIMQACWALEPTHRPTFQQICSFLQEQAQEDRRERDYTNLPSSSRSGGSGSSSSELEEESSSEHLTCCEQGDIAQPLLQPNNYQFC
Outline: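 Recombinant CSF-1R cytoplasmic domain (4 nM) phosphorylated biotinylated peptide (0.05 μM) at 1.0 μM ATP in HEPES with Mg2+/Mn2+, 2 h at room temperature, compounds from 25 μM in 3-fold steps. AlphaScreen anti-phosphotyrosine PT66 detection; IC50 by non-linear regression.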

[4] = target: T3, full-length human CSF-1R receptor (Homo sapiens, UniProt P07333); test: In vitro inhibition of CSF-1R receptor tyrosine phosphorylation in transfected HEK293H cells; type: cell-based; conditions: HEK293-H, tested at about 1 μM, 50 ng/mL MCSF, read-out: PCSF1R percent inhibition
T3 construct: transfected with the full-length human CSF-1R receptor cloned in house; expressed in transfected cells; host or cells: HEK293H (Invitrogen Cat. #11631017)
Procedure: To test the inhibition of CSF-1R receptor tyrosine phosphorylation, HEK293H purchased from Invitrogen Cat. #11631017 cells transfected with the full-length human CSF-1R receptor cloned in house into mammalian episomal transfection vector were incubated for 1 h with serial dilutions of compounds starting at 10 μM with 3 fold dilutions and then stimulated for 8 min with 50 ng/mL MCSF. After the supernatant was removed, the cells were lysed on ice with lysis buffer (150 mM NaCl, 20 mM Tris, pH 7.5, 1 mM EDTA, 1 mM EGTA, 1% Triton X-100 and NaF, protease and phosphatase inhibitors) and then shaken for 15-20 min at 4° C. The lysate was then transferred to total CSF-1R antibody coated 96-well plates that had already been blocked with 3% Blocker A from Mesoscale discovery (MSD) for 2 hours and washed afterwards. Lysates were incubated overnight at 4° C. and the plates were then washed 4× with MSD Tris Wash Buffer. The SULFO-TAG anti-pTyr antibody from MSD was diluted to 20 nM final in 1% Blocker A (MSD) solution and added to the washed plates and incubated for 1.5-2 h before addition of read buffer (MSD). The plates were read on the Sector 6000 instrument (MSD). Raw data was imported in Abase and EC50s calculated with XL-fit data analysis software.

[5] = target: T4, PDGFRb (Homo sapiens, UniProt P09619); test: PDGFRb kinase in vitro biochemical assay (alphascreen); conditions: tested at about 1 μM; read-out: PDGF RK BETA percent inhibition
T4 construct: The kinase domain of PDGFRβ was assayed in 50 mM Hepes; purchased Invitrogen P3082
T4 sequence (P09619 600-962 limits assumed): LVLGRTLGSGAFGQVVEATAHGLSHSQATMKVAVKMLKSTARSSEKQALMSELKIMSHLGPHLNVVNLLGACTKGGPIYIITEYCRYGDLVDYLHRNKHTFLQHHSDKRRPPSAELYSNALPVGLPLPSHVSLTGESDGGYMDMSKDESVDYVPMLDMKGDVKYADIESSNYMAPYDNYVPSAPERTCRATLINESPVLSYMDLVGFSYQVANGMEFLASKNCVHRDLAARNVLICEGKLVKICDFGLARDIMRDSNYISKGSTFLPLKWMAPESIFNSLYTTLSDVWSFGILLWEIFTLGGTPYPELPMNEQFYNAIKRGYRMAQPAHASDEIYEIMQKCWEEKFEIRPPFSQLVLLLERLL

T1 sequence (P10721 589-937 limits assumed): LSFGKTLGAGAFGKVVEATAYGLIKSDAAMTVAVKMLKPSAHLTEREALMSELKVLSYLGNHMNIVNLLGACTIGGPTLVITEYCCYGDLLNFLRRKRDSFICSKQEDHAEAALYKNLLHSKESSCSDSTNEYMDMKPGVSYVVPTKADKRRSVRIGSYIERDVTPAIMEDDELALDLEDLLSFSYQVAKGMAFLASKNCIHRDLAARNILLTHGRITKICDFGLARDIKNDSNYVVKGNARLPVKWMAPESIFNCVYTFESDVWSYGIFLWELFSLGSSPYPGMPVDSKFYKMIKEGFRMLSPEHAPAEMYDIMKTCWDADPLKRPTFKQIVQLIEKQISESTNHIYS
T3 sequence (P07333 20-972): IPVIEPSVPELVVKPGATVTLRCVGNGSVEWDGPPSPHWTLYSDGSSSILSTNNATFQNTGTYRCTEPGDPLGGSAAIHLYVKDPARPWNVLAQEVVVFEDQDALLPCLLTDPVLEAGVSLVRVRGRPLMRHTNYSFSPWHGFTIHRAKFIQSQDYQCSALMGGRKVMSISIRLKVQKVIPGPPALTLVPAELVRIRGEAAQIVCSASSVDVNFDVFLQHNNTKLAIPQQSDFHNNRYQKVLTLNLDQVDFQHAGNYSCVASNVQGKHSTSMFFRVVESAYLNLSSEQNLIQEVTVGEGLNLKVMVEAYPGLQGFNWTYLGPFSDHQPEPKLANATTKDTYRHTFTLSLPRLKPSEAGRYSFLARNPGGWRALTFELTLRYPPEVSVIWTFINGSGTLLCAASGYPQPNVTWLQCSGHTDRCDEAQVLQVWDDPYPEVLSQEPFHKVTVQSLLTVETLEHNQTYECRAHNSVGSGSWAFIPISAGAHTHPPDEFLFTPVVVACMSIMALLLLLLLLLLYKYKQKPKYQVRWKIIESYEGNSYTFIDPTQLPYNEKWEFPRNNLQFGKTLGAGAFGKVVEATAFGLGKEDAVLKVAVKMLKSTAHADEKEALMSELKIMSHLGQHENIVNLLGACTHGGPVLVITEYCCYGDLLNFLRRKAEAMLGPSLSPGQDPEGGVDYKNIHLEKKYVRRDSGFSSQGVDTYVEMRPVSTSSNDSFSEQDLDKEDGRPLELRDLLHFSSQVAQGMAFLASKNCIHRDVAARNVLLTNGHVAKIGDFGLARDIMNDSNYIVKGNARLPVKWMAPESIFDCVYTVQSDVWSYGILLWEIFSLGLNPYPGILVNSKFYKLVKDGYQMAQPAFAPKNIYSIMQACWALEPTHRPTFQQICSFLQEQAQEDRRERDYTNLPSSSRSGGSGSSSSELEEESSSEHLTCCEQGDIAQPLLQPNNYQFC

inhibition at 1 µM [2] | inhibition at 1 µM [3] | inhibition at 1 µM [4] | inhibition at 1 µM [5] | SMILES | inhibition at 1 µM [1]
45% | 100% | 96% | 0% | O[C@@H]1CCCC[C@H]1Nc1nc2ccc(Oc3cncc(-c4cccnc4)c3)cc2s1 [Compound 57, (1R,2R)-2-(6-(3,3′-bipyridin-5-yloxy)benzo[d]thiazol-2-ylamino)cyclohexanol] | 96%
52% | 100% | 95% | 3% | O[C@@H]1CCCC[C@H]1Nc1nc2ccc(Oc3cncc(-c4ccncc4)c3)cc2s1 [Compound 60, (1R,2R)-2-(6-(3,4′-bipyridin-5-yloxy)benzo[d]thiazol-2-ylamino)cyclohexanol] | 97%
35% | 100% | 80% | 14% | Nc1ncc(-c2cncc(Oc3ccc4nc(N[C@@H]5CCCC[C@H]5O)sc4c3)c2)cn1 [Compound 63, (1R,2R)-2-(6-(5-(2-aminopyrimidin-5-yl)pyridin-3-yloxy)benzo[d]thiazol-2-ylamino) cyclohexanol] | 61%
54% | 100% | 95% | 8% | O[C@@H]1CCCC[C@H]1Nc1nc2ccc(Oc3cncc(-c4ccc(F)cc4)c3)cc2s1 [Compound 64, (1R,2R)-2-(6-(5-(4-fluorophenyl)pyridin-3-yloxy)benzo [d]thiazol-2-ylamino) cyclohexanol] | 100%
40% | 100% | 96% | 9% | Cn1ccnc1-c1cncc(Oc2ccc3nc(N[C@@H]4CCCC[C@H]4O)sc3c2)c1 [Compound 66, (1R,2R)-2-(6-(5-(1-methyl-1H-imidazol-2-yl)pyridin-3-yloxy)benzo[d]thiazol-2-ylamino) cyclohexanol] | 90%
33% | 100% | 93% | 21% | Cn1cncc1-c1cncc(Oc2ccc3nc(N[C@@H]4CCCC[C@H]4O)sc3c2)c1 [Compound 68, (1R,2R)-2-(6-(5-(1-methyl-1H-imidazol-5-yl)pyridin-3-yloxy)benzo[d]thiazol-2-ylamino) cyclohexanol] | 85%
48% | 100% | 93% | 9% | CC(C)(C)OC(=O)N1CC=C(c2cncc(Oc3ccc4nc(N[C@@H]5CCCC[C@H]5O)sc4c3)c2)CC1 [Compound 79] | 93%
27% | 100% | 93% | 23% | O[C@@H]1CCCC[C@H]1Nc1nc2ccc(Oc3cncc(-c4cn[nH]c4)n3)cc2s1 [Compound 92, (1R,2R)-2-(6-(6-(1H-pyrazol-4-yl)pyrazin-2-yloxy)benzo [d]thiazol-2-ylamino) cyclohexanol] | 70%
18% | 100% | 95% | 22% | Cn1cc(-c2cncc(Oc3ccc4nc(N[C@@H]5CCCC[C@H]5O)sc4c3)n2)cn1 [Compound 93, (1R,2R)-2-(6-(6-(1-methyl-1H-pyrazol-4-yl)pyrazin-2-yloxy)benzo[d]thiazol-2-ylamino)cyclohexanol] | 82%
13% | 100% | 95% | 9% | CCCn1cc(-c2cncc(Oc3ccc4nc(N[C@@H]5CCCC[C@H]5O)sc4c3)n2)cn1 [Compound 94, (1R,2R)-2-(6-(6-(1-propyl-1H-pyrazol-4-yl)pyrazin-2-yloxy)benzo[d]thiazol-2-ylamino)cyclohexanol] | 80%
24% | 100% | 91% | 19% | Nc1ccc(-c2cncc(Oc3ccc4nc(N[C@@H]5CCCC[C@H]5O)sc4c3)n2)cn1 [Compound 97, (1R,2R)-2-(6-(6-(6-aminopyridin-3-yl)pyrazin-2-yloxy)benzo[d]thiazol-2-ylamino)cyclohexanol] | 62%
15% | 100% | 98% | 12% | CN1CCN(c2ccc(-c3cncc(Oc4ccc5nc(N[C@@H]6CCCC[C@H]6O)sc5c4)n3)cn2)CC1 [Compound 98, (1R,2R)-2-(6-(6-(6-(4-methylpiperazin-1-yl)pyridin-3-yl)pyrazin-2-yloxy)benzo[d]thiazol-2-ylamino)cyclohexanol] | 100%
16% | 100% | 86% | 26% | CN1CCN(c2ccc(-c3cc(Oc4ccc5nc(N[C@@H]6CCCC[C@H]6O)sc5c4)cnc3-c3ccc(N4CCN(C)CC4)nc3)cn2)CC1 [Compound 107, (1R,2R)-2-(6-(5,6-bis(6-(4-methylpiperazin-1-yl)-pyridin-3-yl)pyridin-3-yloxy)benzo[d]thiazol-2-ylamino)cyclohexanol] | 100%

Source: US8293769B2, “CSF-1R inhibitors, compositions, and methods of use” (Novartis AG, priority 2008, dated 2012)
